Measurements from ChEMBL document CHEMBL4411314, “Evaluation of Amides, Carbamates, Sulfonamides, and Ureas of 4-Prop-2-ynylidenecycloalkylamine as Potent, Selective, and Bioavailable Negative Allosteric Modulators of Metabotropic Glutamate Receptor 5” (J Med Chem, 2019).
≈ marks a conversion by molar mass, not a printed value. Calls of active or inactive are those of the source. The rule behind the calls is not given here.

How the values were obtained:
[1] = Kinetic solubility of compound in Tris-HCl buffer at pH 7.4 at 1 mM after 4 hrs by HPLC analysis; assay type: physicochemical; conditions: read-out: Kinetic_solubility
[2] = molecular target: Cytochrome P450 2D6 (Homo sapiens, UniProt P10635); assay: Inhibition of recombinant human CYP2D6 using 3-[2-(N,N-diethylamino)ethyl]-7-methoxy-4-methylcoumarin as substrate preincubated for 10 mins followed by substrate addition and measured after 30 mins; assay type: ADME
[3] = molecular target: Cytochrome P450 3A4 (Homo sapiens, UniProt P08684); assay: Inhibition of recombinant human CYP3A4 using 7-benzyloxy-trifluoromethylcoumarin as substrate preincubated for 10 mins followed by substrate addition and measured after 30 mins; assay type: ADME
[4] = molecular target: T1, Cytochrome P450 2C8 (Homo sapiens, UniProt P10632); assay: Inhibition of recombinant human CYP2C8; assay type: ADME
T1 sequence (P10632 whole entry): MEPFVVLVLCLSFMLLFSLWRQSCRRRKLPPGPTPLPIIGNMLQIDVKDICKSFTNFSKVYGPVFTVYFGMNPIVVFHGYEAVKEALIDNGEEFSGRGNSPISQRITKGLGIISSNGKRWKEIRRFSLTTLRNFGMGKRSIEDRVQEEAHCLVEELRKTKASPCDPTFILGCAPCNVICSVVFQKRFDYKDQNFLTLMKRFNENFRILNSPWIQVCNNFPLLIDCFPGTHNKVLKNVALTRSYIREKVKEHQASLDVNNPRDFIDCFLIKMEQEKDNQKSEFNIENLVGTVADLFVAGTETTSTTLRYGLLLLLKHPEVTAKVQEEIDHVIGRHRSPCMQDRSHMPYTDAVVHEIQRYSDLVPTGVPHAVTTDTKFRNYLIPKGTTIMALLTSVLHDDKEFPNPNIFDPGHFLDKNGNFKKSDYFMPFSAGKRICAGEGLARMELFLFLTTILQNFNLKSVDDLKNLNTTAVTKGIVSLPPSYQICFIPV

[5] = Metabolic stability in human liver microsomes assessed as parent compound remaining at 0.2 mM after 30 mins in presence of NADPH by HPLC-MS/MS analysis; assay type: ADME, Microsome; conditions: read-out: Stability
[6] = Intrinsic clearance in human liver microsomes at 0.2 mM after 30 mins in presence of NADPH by HPLC-MS/MS analysis; assay type: ADME, Microsome; conditions: read-out: CLH
[7] = Cytotoxicity against human HepG2 cells assessed as inhibition of cell viability at 10 uM relative to control; assay type: cell-based; conditions: read-out: GI
[8] = Tmax in rat at 3 mg/kg, po administered as single dose by LC/MS/MS analysis; assay type: ADME, organism-based; conditions: in vivo
[9] = Tmax in dog at 1 mg/kg, iv administered as single dose by LC/MS/MS analysis; assay type: ADME, organism-based, Canis lupus familiaris; conditions: in vivo
[10] = AUC in rat at 1 mg/kg, iv administered as single dose by LC/MS/MS analysis; assay type: ADME, organism-based; conditions: in vivo
[11] = AUC in dog at 1 mg/kg, iv administered as single dose by LC/MS/MS analysis; assay type: ADME, organism-based, Canis lupus familiaris; conditions: in vivo
[12] = Half life in rat at 3 mg/kg, po administered as single dose by LC/MS/MS analysis; assay type: ADME, organism-based; conditions: in vivo
[13] = Half life in dog at 1 mg/kg, iv administered as single dose by LC/MS/MS analysis; assay type: ADME, organism-based, Canis lupus familiaris; conditions: in vivo
[14] = Volume of distribution at steady state in rat at 1 mg/kg, iv administered as single dose by LC/MS/MS analysis; assay type: ADME, organism-based; conditions: in vivo, read-out: Vdss
[15] = Volume of distribution at steady state in dog at 1 mg/kg, iv administered as single dose by LC/MS/MS analysis; assay type: ADME, organism-based, Canis lupus familiaris; conditions: in vivo, read-out: Vdss
[16] = Clearance in rat at 1 mg/kg, iv administered as single dose by LC/MS/MS analysis; assay type: ADME, organism-based; conditions: in vivo
[17] = Clearance in dog at 1 mg/kg, iv administered as single dose by LC/MS/MS analysis; assay type: ADME, organism-based, Canis lupus familiaris; conditions: in vivo
[18] = tested on: Rattus norvegicus; assay: Anxiolytic activity in po dosed Wistar Han rat assessed as increase number of electric shock administered as single dose 1 hr before test by vogel conflict test; assay type: functional, organism-based
[19] = tested on: Rattus norvegicus; assay: Antineuropathic pain activity in CCI induced Wistar Han rat model of paw thermal hyperalgesia assessed as reduction in thermal hyperalgesia at 10 mg/kg, ip administered as single dose administered 7 days after nerve lesion and measured after 1 hr; assay type: functional, organism-based
[20] = tested on: Rattus norvegicus; assay: Increase in bladder volume capacity time in male Wistar Han rat at 3 mg/kg, po treated for 5 hrs; assay type: functional
[21] = molecular target: Metabotropic glutamate receptor 1 (Rattus norvegicus, UniProt P23385); assay: Displacement of [3H]R214127 from rat mGlu1 receptor expressed in CHO-TREx cell membranes after 30 mins by liquid scintillation spectrometric analysis
Metabotropic glutamate receptor 1, sequence (P23385 whole entry): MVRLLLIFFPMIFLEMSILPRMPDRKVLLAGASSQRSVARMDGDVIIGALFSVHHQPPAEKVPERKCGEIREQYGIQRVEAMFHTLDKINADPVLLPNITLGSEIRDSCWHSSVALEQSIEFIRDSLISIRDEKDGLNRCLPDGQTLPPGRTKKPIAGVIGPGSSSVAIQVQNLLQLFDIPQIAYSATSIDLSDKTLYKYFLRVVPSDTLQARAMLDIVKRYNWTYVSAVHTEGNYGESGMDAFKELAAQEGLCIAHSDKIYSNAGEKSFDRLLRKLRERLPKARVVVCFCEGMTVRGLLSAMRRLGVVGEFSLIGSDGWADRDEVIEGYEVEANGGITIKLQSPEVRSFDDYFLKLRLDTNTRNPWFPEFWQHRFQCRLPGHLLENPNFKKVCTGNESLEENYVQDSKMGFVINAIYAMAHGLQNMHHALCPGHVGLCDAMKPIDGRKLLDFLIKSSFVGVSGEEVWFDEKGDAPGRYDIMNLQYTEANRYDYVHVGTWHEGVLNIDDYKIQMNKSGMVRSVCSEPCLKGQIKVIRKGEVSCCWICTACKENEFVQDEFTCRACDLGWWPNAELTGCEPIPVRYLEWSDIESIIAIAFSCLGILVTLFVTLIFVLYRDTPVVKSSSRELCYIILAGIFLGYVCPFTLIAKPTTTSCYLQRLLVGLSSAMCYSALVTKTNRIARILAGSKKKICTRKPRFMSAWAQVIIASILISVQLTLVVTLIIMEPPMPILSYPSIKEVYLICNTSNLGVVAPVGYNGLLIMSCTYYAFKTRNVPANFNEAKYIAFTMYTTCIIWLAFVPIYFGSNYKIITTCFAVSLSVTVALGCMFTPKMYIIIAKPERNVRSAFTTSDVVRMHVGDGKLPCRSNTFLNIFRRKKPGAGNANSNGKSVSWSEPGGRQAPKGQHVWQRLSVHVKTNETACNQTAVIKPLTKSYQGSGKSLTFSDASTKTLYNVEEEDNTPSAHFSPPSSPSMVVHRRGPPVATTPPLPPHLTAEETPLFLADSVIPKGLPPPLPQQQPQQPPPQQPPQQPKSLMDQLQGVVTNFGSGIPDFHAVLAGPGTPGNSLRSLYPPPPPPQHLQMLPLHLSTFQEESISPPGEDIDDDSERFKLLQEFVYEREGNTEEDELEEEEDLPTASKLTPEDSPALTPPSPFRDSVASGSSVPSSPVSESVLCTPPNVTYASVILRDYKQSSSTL

Cytochrome P450 2D6, sequence (P10635 whole entry): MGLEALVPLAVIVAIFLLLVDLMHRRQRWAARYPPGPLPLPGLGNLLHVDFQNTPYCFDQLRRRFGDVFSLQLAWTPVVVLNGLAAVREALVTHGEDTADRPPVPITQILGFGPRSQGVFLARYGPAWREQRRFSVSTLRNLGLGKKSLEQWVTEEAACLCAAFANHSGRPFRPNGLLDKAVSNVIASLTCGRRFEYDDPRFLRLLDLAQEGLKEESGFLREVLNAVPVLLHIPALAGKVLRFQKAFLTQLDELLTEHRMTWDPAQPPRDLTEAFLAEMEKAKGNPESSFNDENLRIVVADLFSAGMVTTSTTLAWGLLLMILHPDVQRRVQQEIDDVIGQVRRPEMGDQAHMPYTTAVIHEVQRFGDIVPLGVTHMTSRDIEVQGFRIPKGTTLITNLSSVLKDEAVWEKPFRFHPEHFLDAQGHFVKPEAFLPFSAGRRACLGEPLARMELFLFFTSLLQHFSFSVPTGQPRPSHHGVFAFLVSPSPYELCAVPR
Cytochrome P450 3A4, sequence (P08684 whole entry): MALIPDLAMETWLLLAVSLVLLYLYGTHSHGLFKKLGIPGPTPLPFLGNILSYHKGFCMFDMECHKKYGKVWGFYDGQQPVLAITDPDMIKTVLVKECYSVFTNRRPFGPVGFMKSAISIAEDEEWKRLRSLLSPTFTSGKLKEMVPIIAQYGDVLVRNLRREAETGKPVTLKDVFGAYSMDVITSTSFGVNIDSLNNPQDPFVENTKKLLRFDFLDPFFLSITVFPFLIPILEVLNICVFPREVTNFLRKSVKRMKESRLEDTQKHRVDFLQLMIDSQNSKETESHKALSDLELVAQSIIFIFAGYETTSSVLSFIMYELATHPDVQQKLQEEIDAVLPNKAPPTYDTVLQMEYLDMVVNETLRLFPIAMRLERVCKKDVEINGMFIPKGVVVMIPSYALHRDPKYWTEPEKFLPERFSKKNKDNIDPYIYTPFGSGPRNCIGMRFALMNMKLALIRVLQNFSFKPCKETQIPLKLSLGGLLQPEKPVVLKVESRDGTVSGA

Compound: CCOC(=O)N1CC/C(=C\C#Cc2cccc(C)n2)C1
- solubility kinetic at 4 h, 1000 µM [1]: 768 µM (≈ 208 µg/mL)
- IC50 [2]: > 20 µM
- IC50 [3]: > 20 µM
- IC50 [4]: > 20 µM
- remaining at 0.5 h, 200 µM [5]: > 95%
- CLint scaled at 200 µM [6]: 0.39 mL/min/kg
- inhibition at 10 µM [7]: 5%
- Tmax [8]: 60 min
- Tmax [9]: 4.8 min
- AUC [10]: 1390 ng·h/mL
- AUC [11]: 228 ng·h/mL
- half-life [12]: 133 min
- half-life [13]: 54.6 min
- Vd [14]: 0.45 L/kg
- Vd [15]: 3.1 L/kg
- clearance [16]: 12 mL/min/kg
- clearance [17]: 88 mL/min/kg
- Activity [18]: Dose-dependent effect
- Activity [19]: Active
- Time [20]: >4 h
- Ki [21]: > 1 µM
